Tested on: KY895
Experiment: Secondary screen: colony formation on acyclovir, AZT, TK selection and LB plates
Format: cell-based, E. coli
Design: key: ++: the same number of colonies were observed as compared to control plates; +: fewer (<20% those observed with pMCC) and generally smaller (˜50% smaller diameter) colonies were observed as compared to control plates; −: no colonies were observed
Conditions: 1 μg/mL thymidine+0.05 μg/mL AZT; 37° C.
Description: Mutant cultures were also spread onto duplicate TK selection and LB+carb50 plates. One set of TK selection plates and LB+carb50 plates were incubated at 42° C. All other plates were incubated at 37° C. After 16-24 hours the plates were scored.

Substance | colonies on AZT plates
F161I/R163H | ++
F161C | −
F161I | + (fewer (<20% those observed with pMCC) and generally smaller (˜50% smaller diameter) colonies were observed as compared to control plates)
P155A/F161V: HSV-1 TK, proline to alanine mutation at position 155 and phenylalanine to valine at position 161 | + (fewer (<20% those observed with pMCC) and generally smaller (˜50% smaller diameter) colonies were observed as compared to control plates)
F161L | ++

Same assay, conditions: 1 μg/mL thymidine+1 μg/mL acyclovir; 37° C.

Substance | colonies on ACV plates
F161I/R163H | ++
F161C | + (fewer (<20% those observed with pMCC) and generally smaller (˜50% smaller diameter) colonies were observed as compared to control plates)
F161I | + (fewer (<20% those observed with pMCC) and generally smaller (˜50% smaller diameter) colonies were observed as compared to control plates)
P155A/F161V: HSV-1 TK, proline to alanine mutation at position 155 and phenylalanine to valine at position 161 | ++
F161L | ++

Same assay, conditions: 37° C.

Substance | colonies on TK selection plates, 37° C.
F161I/R163H | ++
F161C | ++
F161I | ++
P155A/F161V: HSV-1 TK, proline to alanine mutation at position 155 and phenylalanine to valine at position 161 | ++
F161L | ++

Same assay, conditions: 42° C.

Substance | colonies on TK selection plates, 42° C.
F161I/R163H | + (fewer (<20% those observed with pMCC) and generally smaller (˜50% smaller diameter) colonies were observed as compared to control plates)
F161C | ++
F161I | ++
P155A/F161V: HSV-1 TK, proline to alanine mutation at position 155 and phenylalanine to valine at position 161 | ++
F161L | −

Same assay, conditions: LB+carb50 plates

Substance | colonies on LB plates
F161I/R163H | ++
F161C | ++
F161I | ++
P155A/F161V: HSV-1 TK, proline to alanine mutation at position 155 and phenylalanine to valine at position 161 | ++
F161L | ++

Tested on: not listed separately
Experiment: Substrate specificity assay of cell-free translation products, thymidine
Format: biochemical
Conditions: not given
From the text: (§1) No significant difference in phosphorylation efficiency was observed between pT7:MCC and pT7:HSVTKII when thymidine (1.3-fold), deoxycytidine (1.3-fold), GCV (0.8-fold), ACV (0.95-fold), or AZT (1.1-fold) were used as substrate. Furthermore, Sanderson et al. (J. Mol. Biol. 202:917-919, 1988) reported that the Km for thymidine and ATP and the Vmax of TK purified from E. coli harboring pHETK2 (the parent plasmid of pMCC) and HSV-1-infected cells were indistinguishable. Therefore, the alterations observed in the properties of the mutant TKs can be attributed to the nucleotide substitutions within the target region and that any differences between the vectors (pT7:MCC and pT7:HSVTKII) exerted only minor changes in catalytic properties.
(§2) Three of the mutants (P155A/F161V, F161I and F161C) were assayed in triplicate for the relative levels of phosphorylation using thymidine, deoxycytidine, ACV, GCV, or AZT as substrates. Briefly, forty-eight […] of each tritiated substrate was used in each assay reaction. Translation products were diluted for each nucleoside assay as follows (translation/H2O): 1/100, thymidine; 2/3, deoxycytidine, GCV, and AZT; 4/1, ACV. Each set of assays was incubated for 2 hours at 30° C. and the amount of phosphorylated product determined.

Substance | phosphorylation of thymidine relative to HSVTKII
F161I | 2.2 fold
P155A/F161V: HSV-1 TK, proline to alanine mutation at position 155 and phenylalanine to valine at position 161 | 2.6 fold

Tested on: not listed separately
Experiment: Substrate specificity assay of cell-free translation products, deoxycytidine
Format: biochemical
Conditions: not given
From the text: as §1, §2

Substance | phosphorylation of deoxycytidine over the wild-type enzyme
F161C | 2.8 fold
F161I | 1.9 fold
P155A/F161V: HSV-1 TK, proline to alanine mutation at position 155 and phenylalanine to valine at position 161 | 2.8 fold

Tested on: not listed separately
Experiment: Substrate specificity assay of cell-free translation products, ACV
Format: biochemical
Conditions: not given
From the text: as §1, §2

Substance | ACV phosphorylation over HSVTKII
F161C | 2 fold
P155A/F161V: HSV-1 TK, proline to alanine mutation at position 155 and phenylalanine to valine at position 161 | 2.4 fold

Tested on: not listed separately
Experiment: Time course analysis of mutant enzymes (thymidine phosphorylation)
Format: biochemical
Conditions: 30° C., 0-30 minutes; adjusted to protein synthesis
Description: For the high-activity mutant enzymes, unlabeled translation products were diluted 1/9 and incubated for 0, 5, 10, 20, or 30 minutes at 30° C.
The low-activity mutants were diluted 1/5, and the rate of phosphorylation as a function of time was also determined.

Substance | TK activity in time course analysis compared to wild-type
D162E | no difference in activities when compared to the wild-type TK enzyme activities
F161C | no difference in activities when compared to the wild-type TK enzyme activities
F161I | statistically higher affinity for thymidine than the wild-type TK
P155A/F161V: HSV-1 TK, proline to alanine mutation at position 155 and phenylalanine to valine at position 161 | statistically higher affinity for thymidine than the wild-type TK
F161L | moderate ability to phosphorylate thymidine, albeit at a much reduced rate from HSVTKII

Tested on: not given
Experiment: not given
Format: biochemical
Conditions: cell-free translation product
Description: To substantiate this observation, cell-free translation products were incubated at 42° C. for increasing times prior to being assayed for enzyme activity. Briefly, cell free translation (“CFT”) products of each high-activity mutant, -RNA, and HSVTKII samples were diluted 1/9 and incubated for 0, 5, 10, and 20 minutes at 42° C. The preincubated samples were then assayed for 5 minutes (P155A/F161V and F1611) or 20 minutes (-RNA, HSVTKII, F161C, and D162E). The percent of activity remaining was determined with the untreated samples set at 100%. […] Because F161C lost greater than 90% of enzyme activity within the first 20 minutes at 42° C., shorter incubation periods at 42° C. were performed […].
Low-activity mutant CFT products were diluted 1/5 and incubated for 0, 20, 40, or 60 minutes at 42° C. The preincubated samples were then assayed in triplicate for the thymidine phosphorylation for 60 minutes. The percent of activity remaining was determined using the untreated (time 0) sample as 100%.

Substance | activity loss after 5 minutes at 42° C. | enzyme activity lost within the first 20 minutes at 42° C.
F161C | ~85% | greater than 90%

Same assay, conditions: cell-free translation products

Substance | thermal stability after 42° C. preincubation compared to HSVTKII
F161I/R163H | equivalent to HSVTKII
F161L | more thermolabile that HSVTKII

Tested on: BHK tk
Experiment: Sensitivity of guanylate kinase transfectant pools to ACV in TK expressing clones
Format: cell-based, hamster
Conditions: guanylate kinase expression in the presence of wild-type TK
Description: pREP8-7, pREP8-7:hgmk and pREP8-7:mgmk are used to transfect BHK tk, TK-transfected clone C3 and 75-transfected clone D4. Histidinol is used to select pools of stable transfectants and to isolate individual clones.
As in Example 8, pools of transfectants are placed in 96 well microtiter dishes at 1000 cells/well. Eight replicates are incubated for three days in the presence of various GCV or ACV concentrations.

Substance | increased sensitivity to ACV relative to TK expression alone
Guanylate kinase: guanylate kinase expressed from pREP8-7 constructs in wild-type TK clone C3 (human or murine not stated) | approximately 2 fold

Tested on: not listed separately
Experiment: Kinetic analysis of fusion proteins, GMP
Format: biochemical
Conditions: purified protein

Substance | Km
gmk: wild-type guanylate kinase (murine gmk used in the fusions) | 25 µM

Reference: patent US8163528B2, “Nucleic acid molecules encoding thymidine kinase fusion proteins” (Darwin Molecular Corporation, priority 1997, dated 2012)
